# System: KRAS PDC multicell spheroid viability
# Experiment: Anticancer human tumor 825966-067-R-J1-PDC patient-derived colon carcinoma cell line growth inhibition [KRAS2]
# Conditions: for viability, T/C: stronger effect = lower value
# Summary of the method: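 Combination screen of spheroid viability in tumor-cell co-cultures with endothelial (HUVEC) and mesenchymal stem cell stroma. Each agent was tested in half-log dilutions, topping at clinical Cmax or at 10 microM without a known Cmax.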
# [1] = curve of first compound, second compound 0.1 µM
# [2] = curve of first compound, second compound 0.316 µM
# [3] = curve of first compound, second compound 1 µM
# [4] = curve of first compound, second compound 3.16 µM
# [5] = curve of first compound, second compound 10 µM
# [6] = second compound 0.1 µM, first compound 0.0316 µM
# [7] = second compound 0.316 µM, first compound 0.0316 µM
# [8] = second compound 1 µM, first compound 0.0316 µM
# [9] = second compound 3.16 µM, first compound 0.0316 µM
# [10] = second compound 10 µM, first compound 0.0316 µM
# 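Also: spheroids exposed to compounds for 7 days.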
# 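For viability, T/C in this document: 100% = DMSO vehicle control viability.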
compound,measurement,setting,value
COc1cc2nccc(Oc3ccc(NC(=O)C4(C(=O)Nc5ccc(F)cc5)CC4)cc3)c2cc1OC + C=CC(=O)N1CCN(c2nc(=O)n(-c3c(C)ccnc3C(C)C)c3nc(-c4c(O)cccc4F)c(F)cc23)C(C)C1,IC50,[1],1730 nM
same,IC50,[2],1590 nM
same,IC50,[3],1690 nM
same,IC50,[4],1520 nM
same,IC50,[5],461 nM
same,"viability, T/C",[6],108%
same,"viability, T/C","second compound 0.1 µM, first compound 0.1 µM",111%
same,"viability, T/C","second compound 0.1 µM, first compound 0.316 µM",81.8%
same,"viability, T/C","second compound 0.1 µM, first compound 1 µM",88.8%
same,"viability, T/C","second compound 0.1 µM, first compound 3.16 µM",6.77%
same,"viability, T/C","second compound 0.1 µM, first compound 10 µM",8.36%
same,"viability, T/C",[7],91.1%
same,"viability, T/C","second compound 0.316 µM, first compound 0.1 µM",122%
same,"viability, T/C","second compound 0.316 µM, first compound 0.316 µM",71.7%
same,"viability, T/C","second compound 0.316 µM, first compound 1 µM",78.3%
same,"viability, T/C","second compound 0.316 µM, first compound 3.16 µM",6.54%
same,"viability, T/C","second compound 0.316 µM, first compound 10 µM",10.2%
same,"viability, T/C",[8],111%
same,"viability, T/C","second compound 1 µM, first compound 0.1 µM",118%
same,"viability, T/C","second compound 1 µM, first compound 0.316 µM",85.8%
same,"viability, T/C","second compound 1 µM, first compound 1 µM",87.5%
same,"viability, T/C","second compound 1 µM, first compound 3.16 µM",2.49%
same,"viability, T/C","second compound 1 µM, first compound 10 µM",8.75%
same,"viability, T/C",[9],88.4%
same,"viability, T/C","second compound 3.16 µM, first compound 0.1 µM",77%
same,"viability, T/C","second compound 3.16 µM, first compound 0.316 µM",90%
same,"viability, T/C","second compound 3.16 µM, first compound 1 µM",76.1%
same,"viability, T/C","second compound 3.16 µM, first compound 3.16 µM",2.99%
same,"viability, T/C","second compound 3.16 µM, first compound 10 µM",6.07%
same,"viability, T/C",[10],97.4%
same,"viability, T/C","second compound 10 µM, first compound 0.1 µM",78.5%
same,"viability, T/C","second compound 10 µM, first compound 0.316 µM",56.1%
same,"viability, T/C","second compound 10 µM, first compound 1 µM",41.7%
same,"viability, T/C","second compound 10 µM, first compound 3.16 µM",2%
same,"viability, T/C","second compound 10 µM, first compound 10 µM",2.5%
COc1cc(Nc2ncc3c(n2)-c2ccc(Cl)cc2C(c2c(F)cccc2OC)=NC3)ccc1C(=O)O,"viability, T/C",compound 0.1 µM,103% [middle of 5 runs]
same,"viability, T/C",compound 1 µM,114% [middle of 5 runs]
same,"viability, T/C",compound 3.16 µM,119% [middle of 5 runs]
same,"viability, T/C",compound 10 µM,132% [middle of 5 runs]
same,IC50,curve of compound,> 10000 nM
CC(=O)Nc1cccc(-n2c(=O)n(C3CC3)c(=O)c3c(Nc4ccc(I)cc4F)n(C)c(=O)c(C)c32)c1 + CC1OCC2(CCN(c3cnc(Sc4ccnc(N)c4Cl)c(N)n3)CC2)C1N,IC50,[1],> 31.6 nM
same,IC50,[2],> 31.6 nM
same,IC50,[3],4.52 nM
same,IC50,[4],0.827 nM
same,IC50,[5],0.12 nM
same,"viability, T/C","second compound 0.1 µM, first compound 0.0001 µM",93.2%
same,"viability, T/C","second compound 0.1 µM, first compound 0.000316 µM",98.9%
same,"viability, T/C","second compound 0.1 µM, first compound 0.001 µM",125%
same,"viability, T/C","second compound 0.1 µM, first compound 0.00316 µM",103%
same,"viability, T/C","second compound 0.1 µM, first compound 0.01 µM",93.5%
same,"viability, T/C",[6],56.5%
same,"viability, T/C","second compound 0.316 µM, first compound 0.0001 µM",96.3%
same,"viability, T/C","second compound 0.316 µM, first compound 0.000316 µM",91.8%
same,"viability, T/C","second compound 0.316 µM, first compound 0.001 µM",110%
same,"viability, T/C","second compound 0.316 µM, first compound 0.00316 µM",116%
same,"viability, T/C","second compound 0.316 µM, first compound 0.01 µM",64.8%
same,"viability, T/C",[7],49.6%
same,"viability, T/C","second compound 1 µM, first compound 0.0001 µM",80.8%
same,"viability, T/C","second compound 1 µM, first compound 0.000316 µM",128%
same,"viability, T/C","second compound 1 µM, first compound 0.001 µM",105%
same,"viability, T/C","second compound 1 µM, first compound 0.00316 µM",61.2%
same,"viability, T/C","second compound 1 µM, first compound 0.01 µM",27.2%
same,"viability, T/C",[8],21.5%
same,"viability, T/C","second compound 3.16 µM, first compound 0.0001 µM",97.1%
same,"viability, T/C","second compound 3.16 µM, first compound 0.000316 µM",108%
same,"viability, T/C","second compound 3.16 µM, first compound 0.001 µM",39.6%
same,"viability, T/C","second compound 3.16 µM, first compound 0.00316 µM",28.2%
same,"viability, T/C","second compound 3.16 µM, first compound 0.01 µM",18.4%
same,"viability, T/C",[9],15.8%
same,"viability, T/C","second compound 10 µM, first compound 0.0001 µM",57.4%
same,"viability, T/C","second compound 10 µM, first compound 0.000316 µM",9.62%
same,"viability, T/C","second compound 10 µM, first compound 0.001 µM",7.27%
same,"viability, T/C","second compound 10 µM, first compound 0.00316 µM",6.92%
same,"viability, T/C","second compound 10 µM, first compound 0.01 µM",5.11%
same,"viability, T/C",[10],14.4%
